According to PMC9458111, “New 1,2,3-Triazole-Coumarin-Glycoside Hybrids and Their 1,2,4-Triazolyl Thioglycoside Analogs Targeting Mitochondria Apoptotic Pathway: Synthesis, Anticancer Activity and Docking Simulation” (Molecules, 2022):

Experiments:
[1] = test system: human osteosarcoma (HOS cell lines); assay: MTT cytotoxicity assay, HOS; type: cell-based; settings: 48 h
Method: (§1) The synthesized compounds were studied for their cytotoxic activity against several human cancer cell lines, namely human osteosarcoma (HOS cell lines), human breast adenocarcinoma (MDA-MB-231 cell lines), human breast cancer (MCF-7 cell lines), human colorectal adenocarcinoma (Caco-2 cell lines) and human colon cell line (HCT-116 cell lines) using MTT assay at 100 µM, and the results were outlined as shown in Table 1.
(§2) Human osteosarcoma (HOS cell line), human breast adenocarcinoma (MDA-MB-231cell lines), human breast cancer (MCF-7 cell lines), human colorectal adenocarcinoma (Caco2 cell lines), human colon cell line (HCT-116 cell lines), normal human cell lines (BJ-1), and “a telomerase immortalized normal foreskin fibroblast cell line” were obtained from Karolinska Center, Department of Oncology and Pathology, Karolinska Institute and Hospital, Stockholm, Sweden.
(§3) Following culturing for 10 days, the cells were seeded at concentration of 10 × 10^3 cells per well in case of MCF-7 & MDA, 20 × 10^3 cells/well in a fresh complete growth medium in case of HCT-116, Caco2, & HOS and 40 × 10^3 cells/well in case of BJ-1 at 37 °C for 24 h in a water jacketed carbon dioxide incubator. After 48 h’ incubation, the medium was aspirated, and then 40 μl MTT salt (2.5 mg/mL) were added for a further 4 h; 200 μl 10% sodium dodecyl sulphate (SDS) in deionized water were added to each well and incubated overnight at 37 °C. The absorbance was measured at 595 nm with reference 690 nm. Doxorubicin was used as positive control, and 0.5% DMSO was used as negative control. IC50 values were calculated, using a probit analysis, and by utilizing the SPSS computer program (SPSS for Windows, statistical analysis software package/version 9/1989 SPSS Inc., Chicago, IL, USA).

[2] = test system: human breast adenocarcinoma (MDA-MB-231 cell lines); assay: MTT cytotoxicity assay, MDA-MB-231; type: cell-based; settings: MDA-MB-231, 48 h
Method: as §1, §2, §3

[3] = test system: human breast cancer (MCF-7 cell lines); assay: MTT cytotoxicity assay, MCF-7; type: cell-based; settings: for cytotoxicity at 100 µM: MCF7, 48 h; for IC50: MCF7, MTT, 0.78–100 µM, ± SD
Method: as §1, §2, §3

[4] = test system: human colorectal adenocarcinoma (Caco-2 cell lines); assay: MTT cytotoxicity assay, Caco-2; type: cell-based; settings: Caco-2, 48 h
Method: as §1, §2, §3

[5] = test system: human colon cell line (HCT-116 cell lines); assay: MTT cytotoxicity assay, HCT-116; type: cell-based; settings: for cytotoxicity at 100 µM: HCT-116, 48 h
Method: as §1, §2, §3

[6] = biological target: EGFR (Homo sapiens, UniProt P00533); assay: EGFR kinase inhibitory assay (Kinase-Glo Max luminescence); type: biochemical; settings: for IC50: mean of three values, read-out: IC50 (Mean ± SEM), EGFR
Chain of EGFR (P00533 25-1210): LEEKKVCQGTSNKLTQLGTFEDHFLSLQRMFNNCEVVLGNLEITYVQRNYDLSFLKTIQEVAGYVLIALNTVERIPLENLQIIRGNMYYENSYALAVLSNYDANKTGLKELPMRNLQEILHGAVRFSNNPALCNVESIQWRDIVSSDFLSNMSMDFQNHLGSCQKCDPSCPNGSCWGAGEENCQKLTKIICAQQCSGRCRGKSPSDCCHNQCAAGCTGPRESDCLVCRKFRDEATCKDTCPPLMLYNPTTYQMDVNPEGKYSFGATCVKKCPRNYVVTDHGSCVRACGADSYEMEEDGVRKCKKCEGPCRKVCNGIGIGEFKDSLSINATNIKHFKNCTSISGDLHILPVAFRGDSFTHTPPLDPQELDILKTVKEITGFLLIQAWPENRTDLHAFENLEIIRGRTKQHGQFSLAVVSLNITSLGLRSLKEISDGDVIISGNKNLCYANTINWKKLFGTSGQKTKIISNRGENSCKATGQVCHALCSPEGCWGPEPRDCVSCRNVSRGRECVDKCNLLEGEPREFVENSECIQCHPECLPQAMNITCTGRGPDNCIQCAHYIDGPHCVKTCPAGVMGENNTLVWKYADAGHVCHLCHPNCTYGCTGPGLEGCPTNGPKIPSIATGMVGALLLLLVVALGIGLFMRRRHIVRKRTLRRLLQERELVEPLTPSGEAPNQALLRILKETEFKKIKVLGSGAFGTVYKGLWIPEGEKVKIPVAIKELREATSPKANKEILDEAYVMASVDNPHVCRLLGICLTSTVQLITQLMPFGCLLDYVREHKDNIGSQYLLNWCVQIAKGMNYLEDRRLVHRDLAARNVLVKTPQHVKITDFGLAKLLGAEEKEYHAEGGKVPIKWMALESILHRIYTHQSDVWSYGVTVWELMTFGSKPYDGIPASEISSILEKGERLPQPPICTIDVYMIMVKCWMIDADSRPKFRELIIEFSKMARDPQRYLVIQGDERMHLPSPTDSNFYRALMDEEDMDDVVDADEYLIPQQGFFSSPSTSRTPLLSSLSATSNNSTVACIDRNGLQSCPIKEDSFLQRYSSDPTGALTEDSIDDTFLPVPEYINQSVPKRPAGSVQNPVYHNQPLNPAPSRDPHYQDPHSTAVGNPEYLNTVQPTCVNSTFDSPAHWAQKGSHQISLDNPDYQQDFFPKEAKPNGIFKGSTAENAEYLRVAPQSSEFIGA

[7] = biological target: VEGFR-2 (Homo sapiens, UniProt P35968); assay: VEGFR-2 inhibitory assay (ELISA); type: biochemical; settings: for IC50: mean of three values, read-out: IC50 (Mean ± SEM), VEGFR-2
Chain of VEGFR-2 (P35968 20-1356): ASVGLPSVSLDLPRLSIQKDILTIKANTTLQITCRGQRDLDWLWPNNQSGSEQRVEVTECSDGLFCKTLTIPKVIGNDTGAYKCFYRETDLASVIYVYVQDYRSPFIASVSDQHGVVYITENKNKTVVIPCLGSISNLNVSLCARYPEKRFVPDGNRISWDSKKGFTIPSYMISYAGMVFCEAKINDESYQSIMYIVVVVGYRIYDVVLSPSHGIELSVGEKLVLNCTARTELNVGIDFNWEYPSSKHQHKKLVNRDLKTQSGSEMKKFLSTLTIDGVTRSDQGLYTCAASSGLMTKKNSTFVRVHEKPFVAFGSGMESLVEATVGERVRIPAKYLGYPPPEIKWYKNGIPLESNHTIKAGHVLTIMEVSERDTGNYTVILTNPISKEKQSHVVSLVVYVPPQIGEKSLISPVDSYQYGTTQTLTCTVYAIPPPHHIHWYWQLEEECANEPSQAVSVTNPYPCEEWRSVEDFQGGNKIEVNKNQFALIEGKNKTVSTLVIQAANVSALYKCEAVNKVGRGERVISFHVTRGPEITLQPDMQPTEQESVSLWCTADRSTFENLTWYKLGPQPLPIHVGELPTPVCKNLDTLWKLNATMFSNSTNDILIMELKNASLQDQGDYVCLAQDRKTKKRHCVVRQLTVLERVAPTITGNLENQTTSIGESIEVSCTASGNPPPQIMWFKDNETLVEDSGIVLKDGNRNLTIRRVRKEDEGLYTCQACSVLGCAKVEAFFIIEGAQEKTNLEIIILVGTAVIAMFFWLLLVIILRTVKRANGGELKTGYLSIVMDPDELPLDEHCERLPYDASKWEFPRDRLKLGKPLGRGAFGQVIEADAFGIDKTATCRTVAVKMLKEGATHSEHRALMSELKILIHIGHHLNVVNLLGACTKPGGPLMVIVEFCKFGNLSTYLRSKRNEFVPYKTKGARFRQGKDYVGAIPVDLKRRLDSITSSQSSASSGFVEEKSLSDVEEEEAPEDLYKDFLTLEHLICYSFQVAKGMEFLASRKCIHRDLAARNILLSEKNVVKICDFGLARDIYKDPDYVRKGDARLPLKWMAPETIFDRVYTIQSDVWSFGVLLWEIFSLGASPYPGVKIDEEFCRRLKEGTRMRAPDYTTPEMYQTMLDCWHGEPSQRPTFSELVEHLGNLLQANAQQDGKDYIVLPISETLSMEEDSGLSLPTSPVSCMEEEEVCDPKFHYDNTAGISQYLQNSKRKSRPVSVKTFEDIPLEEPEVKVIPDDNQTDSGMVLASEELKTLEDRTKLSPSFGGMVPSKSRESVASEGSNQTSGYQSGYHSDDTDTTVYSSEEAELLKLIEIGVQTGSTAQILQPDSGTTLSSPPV
Method: The cells were harvested, and the homogenates were prepared in saline using a tight pestle homogenizer until complete cell disruption. The kit uses a double-antibody sandwich enzyme-linked immunosorbent assay (ELISA) to determine the level of human VEGFR-2 in samples. A monoclonal antibody for VEGFR-2 was pre-coated onto 96-well plates. The test samples are added to the wells, and a biotinylated detection polyclonal antibody from goat specific for VEGFR-2 was added subsequently followed by washing with PBS buffer. Avidin-Biotin-Peroxidase complex was added, and the unbound conjugates were washed away with PBS buffer. HRP substrate TMB was used to visualize HRP enzymatic reaction. TMB was catalyzed by HRP to produce a blue color product that changed into yellow after adding acidic stop solution. The density of yellow color is proportional to the human VEGFR-2 amount of the sample captured in the plate. The chroma of color and the concentration of the human VEGFR-2 of the samples were positively correlated, and the optical density was determined at 450 nm. The level of human VEGFR-2 in samples was calculated (pg/ml) as duplicate determinations from the standard curve. Percent inhibition was calculated in comparison to control untreated cells.

[8] = biological target: CDK-2/cyclin A2 (Homo sapiens, UniProt P24941); assay: CDK-2/cyclin A2 inhibitory assay (ELISA); type: biochemical; settings: for IC50: mean of three values, read-out: IC50 (Mean ± SEM), CDK-2/Cyclin A2
Method: Assay of CDK-2/cyclin A2 was achieved through ELISA using an affinity tag labeled capture antibody. […] After the incubation period, the unrestrained substance has been discarded, and the wells have been washed. The added TMB (3,3′,5,5′-tetramethylbenzidine) substrate was prompted by Horseradish peroxidase (HRP), and blue coloration appeared. This reaction was stopped through the addition of stop solution to complete changing in colour from blue to yellow. The created signals were equivalent to the quantity of bound analyte, and the Robonik P2000 ELISA reader was used to record the intensity at a certain wavelength (450 nm).

[9] = test system: normal human skin cell lines BJ-1; assay: Safety on normal human skin cells BJ-1 (MTT); type: cell-based; settings: 100 µM
Method: To determine the selectivity and safety, all tested compounds were subjected to an assay for their safety upon normal human skin cell lines BJ-1 at a concentration of 100 µM.
as §2, §3

IC50 [6]	IC50 [7]	IC50 [8]	melting point	Inhibitory activity against EGFR (in words) [6]	Inhibitory activity against VEGFR-2 (in words) [7]	Inhibitory activity against CDK-2/cyclin A2 (in words) [8]	Structure (SMILES)	cytotoxicity at 100 µM [1]	cytotoxicity at 100 µM [2]	cytotoxicity at 100 µM [3]	IC50 [3]	cytotoxicity at 100 µM [4]	cytotoxicity at 100 µM [5]	IC50 ([5]; HCT-116, MTT, 0.78–100 µM, ± SD)	Toxicity on normal skin cells BJ-1 (in words) [9]
0.22 ± 0.01 µM	0.93 ± 0.42 µM	0.24 ± 0.2 µM	231 to 232 °C	–	–	–	Cn1c(COc2ccc3c(-c4ccccc4)cc(=O)oc3c2)nnc1SC1OCC(O)C(O)C1O [Compound 8, 4-Phenyl-7-((4-methyl-5-(1-(β-D-xylopyranosyl)thio)-4H-1,2,4-triazol-3-yl)meth-oxy)-2H-chromen-2-one]	41.9 ± 0.7%	37.1 ± 2.3%	60.1 ± 0.7%	52.2 ± 1.3 µM	28.4 ± 0.6%	23 ± 0.6%	–	–
123 ± 0.1 µM	172 ± 0.02 µM	211 ± 0.05 µM	114 to 115 °C	no inhibitory activities	no inhibitory activities	no inhibitory activities	CC(=O)OC[C@H]1O[C@@H](OCc2cn(CCCOc3ccc4c(-c5ccccc5)cc(=O)oc4c3)nn2)[C@H](OC(C)=O)[C@@H](OC(C)=O)[C@H]1OC(C)=O [Compound 21]	58.3 ± 1.7%	26.4 ± 0.3%	85.4 ± 1.8%	38.9 ± 0.8 µM	59.2 ± 1.1%	64.9 ± 0.5%	82.8 ± 2.3 µM	–
–	–	–	155 to 156 °C	–	–	–	Cn1c(COc2ccc3c(-c4ccccc4)cc(=O)oc3c2)nnc1SCCOCCO [Compound 11, 4-Phenyl-7-((5-((2-(2-hydroxyethoxy)ethyl)thio)-4-methyl-4H-1,2,4-triazol-3-yl)methoxy)-2H-chromen-2-one]	39.7 ± 0.8%	62.4 ± 0.7%	86.7 ± 0.7%	–	19.1 ± 0.4%	91.7 ± 1.1%	–	high toxicity
–	–	–	180 to 181 °C	–	–	–	CCn1c(COc2ccc3c(-c4ccccc4)cc(=O)oc3c2)nnc1SCC(O)CO (centres unmarked) [Compound 14, 4-Phenyl-7-((5-((2,3-dihydroxypropyl)thio)-4-ethyl-4H-1,2,4-triazol-3-yl)methoxy)-2H-chromen-2-one]	90.5 ± 1.1%	97.8 ± 0.7%	98.1 ± 0.3%	–	91.2 ± 2.1%	95.2 ± 0.9%	–	high toxicity
